Reference: paper PMC3419816 (Journal of molecular neuroscience : MN, 2012)
Like-named read-outs stand apart in the source and are kept apart here. Positions of bridges follow the written chain, without caps; N, C: chain ends. No end group written: not given here.

Columns and labels:
ERK [1] = details: NCI-H69; ref Roelle et al., 2008; cited from earlier work
[2] = tested on: epidermal growth factor receptor (EGFR); details: ref Moody et al., 2012, cited from earlier work; for effect on PACAP-induced EGFR tyrosine phosphorylation: NCI-H838
PYK-2 [3] = details: NCI-H69, ref Roelle et al., 2008, cited from earlier work; for PYK-2 tyrosine phosphorylation: 10 μM
PYK-2 [4] = details: 10 μM, NCI-H510; ref Roelle et al., 2008; cited from earlier work
[5] = tested on: cytosolic Ca^2+ (NCI-H510 cells); details: 10 μM, ref Roelle et al., 2008; cited from earlier work
[6] = tested on: cytosolic Ca^2+ (NCI-H69 cells); details: 10 μM, ref Roelle et al., 2008; cited from earlier work
FAK [7] = details: pancreatic acini, cited from earlier work
[8] = tested on: cytosolic Ca^2+ (NCI-H838 cells); experiment: Cytosolic Ca^2+ in Fura-2 AM loaded NCI-H838 cells; type: cell-based; details: for effect on PACAP-27-stimulated fluorescence intensity / effect on basal fluorescence intensity: 50 μM inhibitor; for effect on PACAP-27-stimulated fluorescence intensity: 100 nM PACAP-27, Fig. 1; for effect on basal fluorescence intensity: Fig. 1; for effect on PACAP-induced increase in cytosolic Ca^2+ (discussion): NCI-H838 cells
NCI-H838 cells = details: ref Moody et al., cited from earlier work; for growth of NCI-H838 cells: 2003b
[9] = tested on: cytosolic Ca^2+ (pancreatic acini); details: ref Pace et al., 2003; cited from earlier work
ERK [10] = details: NCI-H838; ref Moody et al., 2002; cited from earlier work
VPAC1 = details: ref Ishihara et al., 1992; Lutz et al., 1993; cited from earlier work
[11] = tested on: phosphatidylinositol turnover; details: lung cancer cells, cited from earlier work
PAC1 = details: cited from earlier work
VPAC2 = details: ref Ishihara et al., 1992; Lutz et al., 1993; cited from earlier work
cAMP = details: lung cancer cells, cited from earlier work
glioma tumor = details: animal models; ref Halder et al., 2007; cited from earlier work
PYK-2 [12] = details: read-out: PYK-2 IC50, cited from earlier work
ovarian tumor = details: animal models; ref Halder et al., 2007; cited from earlier work
FAK [13] = details: read-out: FAK IC50, cited from earlier work
PYK-2 [14] = details: by an increase in cytoplasmic Ca^2+; ref Lev et al., 1995; cited from earlier work
[15] = tested on: prostate, breast, pancreatic and colon tumors; details: nude mice; ref Roberts et al., 2008; cited from earlier work
PYK-2 [16] = experiment: Total PYK-2 Western blot, NCI-H838 cells; type: cell-based; details: 100 nM, 2 min, Fig. 3A
[17] = ATP binding site, ref Liu et al., 2007
[18] = ATP binding, ref Roberts et al., 2008

CC(C)(C)n1nc(-c2ccc(Cl)cc2)c2c(N)ncnc21 [PP2]
effect on GAL- or BK-induced ERK tyrosine phosphorylation (ERK [1]): blocked | effect on PACAP-induced EGFR tyrosine phosphorylation [2]: inhibited | effect on GAL- or BK-induced PYK-2 phosphorylation (PYK-2 [3]): blocked

bradykinin (RPPGFSPFR; Bradykinin; UniProt P01042 381-389, looked up)
PYK-2 tyrosine phosphorylation (PYK-2 [4]): increased | cytosolic Ca^2+ [5]: increased | PYK-2 tyrosine phosphorylation (PYK-2 [3]): increased | cytosolic Ca^2+ [6]: increased

CN(C)CCCn1cc(C2=C(c3c[nH]c4ccccc34)C(=O)NC2=O)c2ccccc21 [GF109203X]
effect on CCK-induced FAK tyrosine phosphorylation (FAK [7]; ref Tapia et al., 1999): unaffected

COc1ccc2c(c1)CC[C@@H]1[C@@H]2CC[C@]2(C)[C@@H](NCCCCCCN3C(=O)C=CC3=O)CC[C@@H]12 [U73122]
effect on ionomycin-induced increase in cytosolic Ca^2+ ([8]; 5 μM ionomycin, data not shown): little effect | effect on PACAP-27-stimulated fluorescence intensity [8]: abolished | effect on basal fluorescence intensity [8]: little effect

PACAP(6–38): PAC1 antagonist (FTDSYSRYRKQMAVKKYLAAVLGKRYKQRVKNK; ends and bridges not checked; UniProt P18509 137-169, looked up, fragment)
growth of NCI-H838 cells (NCI-H838 cells): inhibited | inhibition of proliferation of NCI-H838 cells (NCI-H838 cells; 2012): inhibited | effect on PACAP-induced EGFR tyrosine phosphorylation [2]: inhibited | effect on PACAP-induced increase in cytosolic Ca^2+ (discussion) [8]: blocked

galanin (GWTLNSAGYLLGPHAVGNHRSFSDKNGLTS; Galanin; UniProt P22466 33-62, looked up)
PYK-2 tyrosine phosphorylation (PYK-2 [4]): increased | cytosolic Ca^2+ [5]: increased | PYK-2 tyrosine phosphorylation (PYK-2 [3]): increased | cytosolic Ca^2+ [6]: increased

C/C=C(/C)C(=O)O[C@H]1C(C)=C2[C@H]([C@@H]1OC(=O)CCCCCCC)[C@@](C)(OC(C)=O)C[C@H](OC(=O)CCC)[C@@]1(O)[C@H]2OC(=O)[C@@]1(C)O [thapsigargin]
effect on CCK-induced increase in cytosolic Ca^2+ [9]: inhibits

COc1cccc(-c2cc(=O)c3ccccc3o2)c1N [PD98059]
effect on PACAP-induced ERK tyrosine phosphorylation (ERK [10]): inhibited

vasoactive intestinal peptide [VIP]
binding affinity to VPAC1 (VPAC1): high affinity | growth of NCI-H838 cells (NCI-H838 cells): stimulated | PI turnover ([11]; ref Lee et al., 1990): does not cause PI turnover | binding affinity to PAC1 (PAC1; ref Ishihara et al., 1992, Lutz et al., 1993): low affinity | binding affinity to VPAC2 (VPAC2): high affinity | cAMP (cAMP; ref Lee et al., 1990): increases

CNC(=O)c1ccccc1Nc1nc(Nc2ccc(N3CCOCC3)cc2OC)ncc1Cl [TAE226]
glioma tumor growth (glioma tumor): inhibited | IC50 (PYK-2 [12]; [17]): 5 nM | ovarian tumor growth (ovarian tumor): inhibited | IC50 (FAK [13]; [17]): 5 nM

platelet-derived growth factor
PYK-2 activation (PYK-2 [14]): activated

CN(c1ncccc1CNc1nc(Nc2ccc3c(c2)CC(=O)N3)ncc1C(F)(F)F)S(C)(=O)=O [PF-562,271]
growth of prostate, breast, pancreatic and colon tumors [15]: inhibited | IC50 (PYK-2 [12]; [18]): 13 nM | IC50 (FAK [13]; [18]): 2 nM

vasopressin (CYFQNCPRG-NH2; disulfide 1-6; ends not checked; UniProt P01185 20-28, looked up)
PYK-2 activation (PYK-2 [14]): activated

O=S(=O)(NCCNC/C=C/c1ccc(Br)cc1)c1cccc2cnccc12 [H89]
effect on PACAP-27-stimulated fluorescence intensity [8]: no effect | effect on basal fluorescence intensity [8]: no effect

pituitary adenylate cyclase activating polypeptide [PACAP]
growth of NCI-H838 cells (NCI-H838 cells): stimulated | ERK tyrosine phosphorylation (ERK [10]): caused ERK tyrosine phosphorylation | total PYK-2 (PYK-2 [16]): did not change | Y^1068-EGFR phosphorylation ([2]; NCI-H838, after 1 min): increased | PI metabolites ([11]; ref not given): increases | binding affinity to PAC1 (PAC1; ref not given for PACAP): high affinity | cAMP (cAMP; ref not given): increases

O=C(O)CN(CC(=O)O)c1ccccc1OCCOc1ccccc1N(CC(=O)O)CC(=O)O [BAPTA]
effect on PACAP-induced EGFR tyrosine phosphorylation [2]: not BAPTA inhibited | effect on PACAP-induced increase in cytosolic Ca^2+ (discussion) [8]: inhibited | effect on GAL- or BK-induced PYK-2 phosphorylation (PYK-2 [3]): blocked

B1: Cholecystokinin (peptide, UniProt P06307 21-115, looked up)
Cholecystokinin: QPVPPADPAGSGLQRAEEAPRRQLRVSQRTDGESRAHLGALLARYIQQARKAPSGRMSIVKNLQNLDPSHRISDRDYMGWMDFGRRSAEEYEYPS
modifications: Cholecystokinin
cytosolic Ca^2+ [9]: elevates | tyrosine phosphorylation of FAK (FAK [7]; ref Pace et al., 2003): causes tyrosine phosphorylation
